According to ChEMBL document CHEMBL3044826, “Design, synthesis and biological evaluation of some novel substituted 2-mercapto-3-phenethylquinazolines as antitumor agents” (2013):
Active and inactive are the calls of the source. The rule behind the calls is not given here.

How the values were obtained:
SN12C = test: Cytotoxicity against Homo sapiens (human) SN12C cells assessed as growth inhibition at 10 uM after 48 hr by coulter counter analysis; type: functional; conditions: read-out: GI
A498 = test: Cytotoxicity against Homo sapiens (human) A498 cells assessed as growth inhibition at 10 uM after 48 hr by coulter counter analysis; type: functional; conditions: A498, 48 h, read-out: GI
786-0 = test: Cytotoxicity against Homo sapiens (human) 786-0 cells assessed as growth inhibition at 10 uM after 48 hr by coulter counter analysis; type: functional; conditions: 786-0, 48 h, read-out: GI
NCI-H522 = test: Cytotoxicity against Homo sapiens (human) NCI-H522 cells at 10 uM after 48 hr by coulter counter analysis; type: functional, cell-based
T47D = test: Cytotoxicity against Homo sapiens (human) T47D cells assessed as growth inhibition at 10 uM after 48 hr by coulter counter analysis; type: functional; conditions: read-out: GI
BT-549 = test: Cytotoxicity against Homo sapiens (human) BT549 cells assessed as growth inhibition at 10 uM after 48 hr by coulter counter analysis; type: functional; conditions: BT-549, 48 h, read-out: GI
Hs-578T = test: Cytotoxicity against Homo sapiens (human) Hs578T cells assessed as growth inhibition at 10 uM after 48 hr by coulter counter analysis; type: functional; conditions: read-out: GI
MDA-MB-435 = test: Cytotoxicity against Homo sapiens (human) MDA-MB-435 cells assessed as growth inhibition at 10 uM after 48 hr by coulter counter analysis; type: functional; conditions: MDA-MB-435, 48 h, read-out: GI
U-251 = test: Cytotoxicity against Homo sapiens (human) U251 cells assessed as growth inhibition at 10 uM after 48 hr by coulter counter analysis; type: functional; conditions: U-251, 48 h, read-out: GI
SNB-75 = test: Cytotoxicity against Homo sapiens (human) SNB75 cells assessed as growth inhibition at 10 uM after 48 hr by coulter counter analysis; type: functional; conditions: SNB-75, 48 h, read-out: GI
HCC 2998 = test: Cytotoxicity against Homo sapiens (human) HCC2998 cells assessed as growth inhibition at 10 uM after 48 hr by coulter counter analysis; type: functional; conditions: HCC 2998, 48 h, read-out: GI
UACC-257 = test: Cytotoxicity against Homo sapiens (human) UACC257 cells assessed as growth inhibition at 10 uM after 48 hr by coulter counter analysis; type: functional; conditions: UACC-257, 48 h, read-out: GI
SK-MEL-5 = test: Cytotoxicity against Homo sapiens (human) SK-MEL-5 cells assessed as growth inhibition at 10 uM after 48 hr by coulter counter analysis; type: functional; conditions: SK-MEL-5, 48 h, read-out: GI
NCI-H460 = test: Cytotoxicity against Homo sapiens (human) NCI-H460 cells assessed as growth inhibition at 10 uM after 48 hr by coulter counter analysis; type: functional; conditions: NCI-H460, 48 h, read-out: GI
NCI-H226 = test: Cytotoxicity against Homo sapiens (human) NCI-H226 cells assessed as growth inhibition at 10 uM after 48 hr by coulter counter analysis; type: functional; conditions: NCI-H226, 48 h, read-out: GI
HOP-62 = test: Cytotoxicity against Homo sapiens (human) HOP62 cells assessed as growth inhibition at 10 uM after 48 hr by coulter counter analysis; type: functional; conditions: HOP-62, 48 h, read-out: GI
EKVX = test: Cytotoxicity against Homo sapiens (human) EKVX cells assessed as growth inhibition at 10 uM after 48 hr by coulter counter analysis; type: functional; conditions: read-out: GI
A549 = test: Cytotoxicity against Homo sapiens (human) A549 cells assessed as growth inhibition at 10 uM after 48 hr by coulter counter analysis; type: functional; conditions: A549, 48 h, read-out: GI
MOLT-4 = test: Cytotoxicity against Homo sapiens (human) MOLT4 cells assessed as growth inhibition at 10 uM after 48 hr by coulter counter analysis; type: functional; conditions: MOLT-4, 48 h, read-out: GI
HL-60(TB) = test: Cytotoxicity against Homo sapiens (human) HL-60(TB) cells assessed as growth inhibition at 10 uM after 48 hr by coulter counter analysis; type: functional; conditions: HL-60, 48 h, read-out: GI
CCRF-CEM = test: Cytotoxicity against Homo sapiens (human) CCRF-CEM cells assessed as growth inhibition at 10 uM after 48 hr by coulter counter analysis; type: functional; conditions: read-out: GI

CCn1c(S)nnc1CSc1nc2ccccc2c(=O)n1CCc1ccccc1
inhibition of growth at 10 µM (SN12C): < 10%
inhibition of growth at 10 µM (A498): < 10%
inhibition of growth at 10 µM (786-0): 19%
Activity (NCI-H522): Active
inhibition of growth at 10 µM (T47D): 27%
inhibition of growth at 10 µM (BT-549): 28%
inhibition of growth at 10 µM (Hs-578T): < 10%
inhibition of growth at 10 µM (MDA-MB-435): 16%
inhibition of growth at 10 µM (U-251): < 10%
inhibition of growth at 10 µM (SNB-75): < 10%
inhibition of growth at 10 µM (HCC 2998): < 10%
inhibition of growth at 10 µM (UACC-257): 12%
inhibition of growth at 10 µM (SK-MEL-5): 18%
inhibition of growth at 10 µM (NCI-H460): 31%
inhibition of growth at 10 µM (NCI-H226): 35%
inhibition of growth at 10 µM (HOP-62): 22%
inhibition of growth at 10 µM (EKVX): 15%
inhibition of growth at 10 µM (A549): 16%
inhibition of growth at 10 µM (MOLT-4): 29%
inhibition of growth at 10 µM (HL-60(TB)): 30%
inhibition of growth at 10 µM (CCRF-CEM): 27%
